Measurements taken from PubChem BioAssay AID1963428 (Molecular Pharmacology Branch, DTP, NCI, 2024).
Values joined by “and” are separate entries in the source; they are usually repeats but may differ in a detail not shown here. Identical values can stand only once.

Test system: 171881-019-R-J1-PDC complex spheroid growth, % test/control
Assay: Anticancer human tumor 171881-019-R-J1-PDC patient-derived invasive breast carcinoma cell line growth inhibition [Asc]
Details: for viability, T/C: stronger effect = lower value
Procedure: Multicellular complex tumor spheroid response to apoptosis pathway targeting inhibitors Alrizomadlin, Pelcitoclax, and Dasminapant in combination with a variety of drugs and investigational agents in selected tumor cell lines
The MDM2 inhibitor alrizomadlin, the Bcl-2/Bcl-xL inhibitor pelcitoclax, and the IAPs inhibitor dasminapant were evaluated both individually and in combination with standard of care and investigational anticancer small molecules within a complex spheroid model of solid tumors. . Complex spheroids include a stromal component modeled by human endothelial cells (HUVEC) and fibroblasts modeled by human mesenchymal stem cells (MSCs). The concentration ranges selected for each drug and investigational agent were based upon clinically achievable concentrations if the clinical Cmax of the agent was known.
Compounds. The drugs and investigational agents: alrizomadlin (APG-115; NSC831270), pelcitoclax (APG-1252; NSC835773), dasminapant (APG-1387;NSC834197), TAK-243 (NSC785004), copanlisib (NSC809693), olaparib (NSC753686), talazoparib (NSC767125), cobimetinib (NSC 768068), eltanexor (KPT-8602, NSC 794443), abemaciclib (NSC 768073), sotorasib (NSC818433), adagrasib (NSC 831453), MRTX-1133 (NSC 836407), Iadademestat (ORY1001, NSC 806812), and RMC-4630 (NSC839698), were obtained from the NCI Developmental Therapeutics Program Chemical Repository. The FDA-approved anticancer drug set is available from the Developmental Therapeutics Program at https://dtp.cancer.gov/organization/dscb/obtaining/available plates.htm. […] The stock solutions were prepared in dimethyl sulfoxide (DMSO, Sigma-Aldrich, St. Louis, MO, cat. D2650) at 800-fold the tested concentration and stored at -70 degrees C prior to their use. All drugs and investigational agents were tested over a range starting from a high concentration at or near the clinical Cmax and decreasing in half-log increments. If the clinical Cmax for an agent had not been determined, the highest concentration tested was 10 microM.
The patient-derived cancer (PDC) cell lines include five colon adenocarcinomas: 186277-243-T-J2-PDC, 616215-338-R-J1-PDC, 439559-082-T-J2-PDC, 463943-066-T-J2-PDC, and 519858-162-T-J1-PDC; three pancreatic carcinomas: 323965-272-R-J2-PDC, 521955-158-R6-J3-PDC, and 521955-158-R2-J5-PDC; two uterine sarcomas: 327498-152-R-J2-PDC and 993429-296-R-J1-PDC; two rhabdomyosarcomas: 755483-174-R-J1-PDC and 772245-204-R-J1-PDC; two soft tissue sarcomas: 126254-015-R-J1-PDC and 494315-158-R-J1-PDC; two malignant fibrous histiocytomas: 317291-083-R-J1-PDC and 596521-263-R-J1-PDC; two breast carcinomas: 171881-019-R-J1-PDC and 885512-296-R-J2-PDC; and one ovarian carcinoma: 6556581-035-R-J-PDC were obtained from the NCI PDMR, (https://pdmr.cancer.gov). The established cell lines HSSY-2 synovial sarcoma (RRID:CVCL 8719), SYO-1 synovial sarcoma (RRID:CVCL_7146), MPNST malignant peripheral neural sheath tumor were obtained from the Sloan Kettering Institute. The following established cell lines were purchased from the American Type Culture Collection (ATCC, Manassas, VA), Sor the received from the NCI repository:, PANC-1 pancreatic carcinoma (CRL-1469, RRID:CVCL_0480), OVCAR-5 ovarian carcinoma (RRID:CVCL_1628), OVCAR-8 ovarian carcinoma (RRID:CVCL_1629), , MCF-7 breast carcinoma (CRL-12584, RRID:CVCL_0031), MDA-MB-231 breast carcinoma (CRL-12532, RRID:CVCL_0062), NCI-H1876 small cell lung carcinoma (CRL-5902, RRID:CVCL_1503), NCI-H510A small cell lung carcinoma (HTB-184, RRID:CVCL_1565), NCI-H1417 (CRL-5869, RRID:CVCL_1469), and NCI-H196 small cell lung carcinoma (CRL-5823, RRID:CVCL_1509). Dr. Peter Houghton (Greehey Children's Cancer Research Institute, University of Texas Health Science Center, San Antonio, TX) provided Rh-18 rhabdomyosarcoma (RRID:CVCL_1659). Pooled donor human umbilical vein endothelial cells (HUVEC, Lonza, cat. CC-2519) and human mesenchymal stem cells (hMSC, Lonza, cat. PT-2501) were purchased from Lonza (Walkersville, MD).
Cell Culture. […]

[1] = compound alone, run of 09/27/2022
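Wherever viability, T/C is given: spheroids exposed to compounds for 7 days.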

Row | SMILES | IC50 (curve of compound) | viability, T/C (compound 0.0316 µM) | viability, T/C (compound 0.1 µM) | viability, T/C (compound 0.316 µM) | viability, T/C (compound 1 µM) | viability, T/C (compound 10 µM) | viability, T/C (compound 0.00316 µM) | viability, T/C (compound 0.01 µM) | other results
1 | C=C(F)C(=O)N1CCN(c2nc(OCC3CCCN3C)nc3c2CCN(c2cccc4cccc(Cl)c24)C3)CC1CC#N (configuration not stated) | 5430 nM and 5720 nM and 5490 nM | 85.9% and 113% and 104% | 86% and 98.9% and 99.5% | 116% and 99.8% and 93.9% | 82.4% and 111% and 84.5% | 0.42% and 0.28% and 0.66% | – | – | viability, T/C (compound 3.16 µM): 98.7% and 103% and 95.5%
2 | CCN1C(C(=O)NC23CCC(C(=O)O)(CC2)CC3)C(c2cccc(Cl)c2F)C2(C(=O)Nc3cc(Cl)ccc32)C12CCCCC2 (configuration not stated) | > 3000 nM | – | – | – | – | – | – | – | viability, T/C (compound 0.00949 µM): 76.5% and 112%; IC50 [1]: > 3000 nM
3 | CNC(C)C(=O)NC1CN(S(=O)(=O)c2cccc(S(=O)(=O)N3CCC4CCC(C(=O)NC(c5ccccc5)c5ccccc5)N4C(=O)C(NC(=O)C(C)NC)C3)c2)CCC2CCC(C(=O)NC(c3ccccc3)c3ccccc3)N2C1=O (configuration not stated) | > 1000 nM | – | 95.1% [middle of 15 runs] | – | – | – | 102% and 97.8% | – | IC50 (compound alone, run of 10/03/2022): > 1000 nM
4 | Cc1c(S(C)(=O)=O)c(-c2cc(F)cc(N3CCN(c4ccc(NS(=O)(=O)c5ccc(NC(CCN6CCC(C(=O)OCCCP(=O)(O)O)CC6)CSc6ccccc6)c(S(=O)(=O)C(F)(F)F)c5)cc4)CC3)c2)c(-c2ccc(Cl)cc2)n1C(C)C (configuration not stated) | – | – | 98.9% [middle of 14 runs] | – | – | 175% [middle of 14 runs] | – | – | IC50 [1]: > 10000 nM
5 | Cc1nc(N2CCC3(CC2)COC(C)C3N)c(CO)nc1Sc1ccnc(N)c1Cl (configuration not stated) | > 3000 nM | – | – | – | – | – | – | – | viability, T/C (compound 0.00949 µM): 123% and 94.5% and 97.3%; viability, T/C (compound 0.03 µM): 137% and 100% and 92%; viability, T/C (compound 0.0949 µM): 214% and 125% and 157%; viability, T/C (compound 0.3 µM): 268% and 160% and 188%; viability, T/C (compound 0.949 µM): 225% and 150% and 152%; viability, T/C (compound 3 µM): 168% and 117% (2×)
6 | NC1CCC(NC2CC2c2ccccc2)CC1 (configuration not stated) | > 100 nM | 76.2% and 94.8% and 77.5% | 75.7% and 109% and 79.7% | – | – | – | 94.6% and 94.2% and 80.9% | 92.8% and 95.6% and 87.6% | viability, T/C (compound 0.000316 µM): 97.1% and 106% and 92%; viability, T/C (compound 0.001 µM): 87.7% and 98.6% and 88.7%
7 | O=C(c1cc(Cc2n[nH]c(=O)c3ccccc23)ccc1F)N1CCN(C(=O)C2CC2)CC1 | > 10000 nM | 88.5% and 96.6% and 106% | 90.8% and 103% and 111% | 93.1% and 101% and 107% | 95.5% and 86% and 102% | 92.6% and 79.8% and 122% | – | – | viability, T/C (compound 3.16 µM): 87.9% and 87.8% and 107%
8 | O=C(c1ccc(F)c(F)c1Nc1ccc(I)cc1F)N1CC(O)([C@@H]2CCCCN2)C1 | 545 nM and 344 nM and > 1000 nM | 121% and 111% and 153% | 150% and 136% and 218% | 65.5% and 51.4% and 121% | 32.6% and 32.5% and 58.2% | – | 86.7% and 86.1% and 88.1% | 104% and 85.4% and 111% | –

Further lines, with some results ahead:

Row | IC50 (curve of compound) | SMILES | viability, T/C (compound 0.0316 µM) | viability, T/C (compound 0.1 µM) | viability, T/C (compound 0.316 µM) | viability, T/C (compound 1 µM) | viability, T/C (compound 10 µM) | viability, T/C (compound 0.00316 µM) | viability, T/C (compound 0.01 µM) | other results
9 | > 10000 nM | C#Cc1c(F)ccc2cc(O)cc(-c3ncc4c(N5CC6CCC(C5)N6)nc(OCC56CCCN5CC(F)C6)nc4c3F)c12 (configuration not stated) | 105% and 82.7% and 103% | 107% and 98% and 102% | 129% and 115% and 117% | 229% and 139% and 208% | 281% and 162% and 190% | – | – | viability, T/C (compound 3.16 µM): 271% and 153% and 240%
10 | > 10000 nM | C=CC(=O)N1CCN(c2nc(=O)n(-c3c(C)ccnc3C(C)C)c3nc(-c4c(O)cccc4F)c(F)cc23)C(C)C1 (configuration not stated) | 94.2% and 93.7% and 99.4% | 95.4% and 109% and 106% | 90.9% and 107% and 99.9% | 89.2% and 92.1% and 88.4% | 71.1% and 78.1% and 83.2% | – | – | viability, T/C (compound 3.16 µM): 80.5% and 93.2% and 83.7%
11 | > 1000 nM | CCN1CCN(Cc2ccc(Nc3ncc(F)c(-c4cc(F)c5nc(C)n(C(C)C)c5c4)n3)nc2)CC1 | 97.8% and 111% and 105% | 109% and 104% and 128% | 110% and 120% and 131% | 130% and 141% and 128% | – | 97.1% and 108% and 114% | 79.1% and 101% (2×) | –
12 | 33.9 nM and 30.9 nM and 24.8 nM | COc1c(OCCCN2CCOCC2)ccc2c3n(c(=NC(=O)c4cnc(N)nc4)nc12)CCN3 | 50.5% and 46.9% and 61.2% | 17.4% and 14.1% and 19.9% | 3.09% and 3.26% and 4.21% | 1.31% and 1.02% and 4.37% | – | 148% and 152% and 226% | 115% and 134% and 153% | –
13 | > 100 nM | Cn1ncnc1[C@H]1c2n[nH]c(=O)c3cc(F)cc(c23)N[C@@H]1c1ccc(F)cc1 | 86.6% and 86.8% and 99.6% | 91.4% and 81% and 106% | – | – | – | 90% and 88.5% and 79.2% | 92.8% and 101% and 84.1% | viability, T/C (compound 0.000316 µM): 81.3% and 100% and 94.1%; viability, T/C (compound 0.001 µM): 86.7% and 107% and 93%
14 | 23.4 nM and 35.4 nM and 66.1 nM | NC(=O)C(=Cn1cnc(-c2cc(C(F)(F)F)cc(C(F)(F)F)c2)n1)c1cncnc1 | – | – | – | – | – | – | – | viability, T/C (compound 0.000949 µM): 83.2% and 95.6% and 98.7%; viability, T/C (compound 0.003 µM): 90.3% and 107% and 115%; viability, T/C (compound 0.00949 µM): 73.5% and 95.6% and 128%; viability, T/C (compound 0.03 µM): 44.2% and 56.6% and 124%; viability, T/C (compound 0.0949 µM): 7.59% and 10.6% and 19.6%; viability, T/C (compound 0.3 µM): 2.48% and 3.46% and 4.69%
